Data reported in BigSolDB 2.1.

Cc1nc2n(c(=O)c1CCN1CCC(c3noc4cc(F)ccc34)CC1)CCCC2O (stereo not given)
solubility (mole fraction)
Details	288.15 K	293.15 K	298.15 K	303.15 K	308.15 K	313.15 K	318.15 K	323.15 K	328.15 K
in 1,4-dioxane	0.00042	0.000595	0.000832	0.00115	0.00159	0.00214	0.00292	0.00382	0.00495
in THF	0.000399	0.00055	0.000757	0.00101	0.00134	0.00177	0.00232	0.00312	0.00391
in acetone	6.42e-05	8.92e-05	0.000126	0.000171	0.000233	0.000314	0.000438	0.000556	0.000702
in acetonitrile	2.45e-05	3.58e-05	5.16e-05	7.32e-05	0.000101	0.000143	0.000195	0.000263	0.00035
in ethanol	6.58e-05	9.25e-05	0.000129	0.000178	0.000236	0.000338	0.00045	0.00059	0.00079
in ethyl acetate	5.95e-05	8.43e-05	0.000118	0.000164	0.000225	0.000311	0.000415	0.00056	0.000742
in isopropanol	2.65e-05	3.97e-05	5.8e-05	8.16e-05	0.00013	0.000179	0.000269	0.000363	0.000502
in methanol	0.000103	0.000143	0.000192	0.00026	0.000347	0.000463	0.000618	0.000815	0.00105
in methyl acetate	7.29e-05	0.000101	0.000141	0.000196	0.000266	0.000361	0.000503	0.000643	0.000814
in n-butanol	8.99e-05	0.000128	0.000179	0.000249	0.000347	0.000443	0.000587	0.000829	0.00115
in n-butyl acetate	5.19e-05	7.43e-05	0.000105	0.000147	0.000204	0.000282	0.000381	0.000514	0.000692
in n-hexanol	7.11e-05	0.00012	0.000175	0.000244	0.000332	0.000465	0.000682	0.000958	0.00125
in n-pentanol	9.07e-05	0.000129	0.000184	0.000258	0.000364	0.000553	0.000742	0.000963	0.00128
in n-propanol	7.03e-05	0.000102	0.000133	0.000214	0.000298	0.000391	0.00056	0.000768	0.00107
in n-propyl acetate	5.47e-05	7.82e-05	0.000111	0.000155	0.000214	0.000294	0.000398	0.000537	0.000728
